One experiment deals with TNF. Kind of experiment: Rat pharmacodynamics: serum TNF by ELISA. The format is in vivo, rats. As to conditions: rats, single IM or SC administration.
The target of another experiment is T1, human TLR8 (Homo sapiens, UniProt Q9NR97).
T1 construct: host or cells: HEK293 with NF-kB-responsive SEAP reporter
T1 sequence (Q9NR97 27-1041): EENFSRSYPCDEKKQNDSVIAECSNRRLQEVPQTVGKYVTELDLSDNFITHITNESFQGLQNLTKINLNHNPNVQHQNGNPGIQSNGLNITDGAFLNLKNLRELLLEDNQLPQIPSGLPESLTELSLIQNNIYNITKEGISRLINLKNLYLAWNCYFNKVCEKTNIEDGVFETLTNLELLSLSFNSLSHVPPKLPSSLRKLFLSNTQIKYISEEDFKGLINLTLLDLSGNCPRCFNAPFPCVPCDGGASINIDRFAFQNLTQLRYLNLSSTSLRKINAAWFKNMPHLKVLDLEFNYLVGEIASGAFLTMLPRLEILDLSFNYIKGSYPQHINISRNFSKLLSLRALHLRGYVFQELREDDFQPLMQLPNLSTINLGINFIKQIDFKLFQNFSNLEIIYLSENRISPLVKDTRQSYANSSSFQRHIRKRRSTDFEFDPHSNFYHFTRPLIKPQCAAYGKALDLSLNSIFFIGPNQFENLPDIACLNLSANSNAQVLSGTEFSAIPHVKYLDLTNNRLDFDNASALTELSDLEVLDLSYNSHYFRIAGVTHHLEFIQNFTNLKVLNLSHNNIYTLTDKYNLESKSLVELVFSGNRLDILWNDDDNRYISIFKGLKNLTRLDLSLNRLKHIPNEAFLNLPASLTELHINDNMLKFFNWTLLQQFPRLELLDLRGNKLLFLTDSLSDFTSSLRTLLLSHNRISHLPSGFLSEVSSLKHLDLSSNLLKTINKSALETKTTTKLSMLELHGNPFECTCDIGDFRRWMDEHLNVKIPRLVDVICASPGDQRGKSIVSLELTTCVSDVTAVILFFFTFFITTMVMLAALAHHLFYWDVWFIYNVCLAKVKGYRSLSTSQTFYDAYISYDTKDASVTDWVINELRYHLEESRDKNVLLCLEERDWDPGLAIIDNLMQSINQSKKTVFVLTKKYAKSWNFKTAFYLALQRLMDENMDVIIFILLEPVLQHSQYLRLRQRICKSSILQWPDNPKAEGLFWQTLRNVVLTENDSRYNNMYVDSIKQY
Kind of experiment: HEK293 NF-kB SEAP reporter assay, human TLR8. The format is cell-based. How it is done: Human embryonic kidney (HEK)293 cells expressing human TLR7 or TLR8 with an NF-κB-responsive secreted embryonic alkaline phosphatase (SEAP) reporter gene were obtained from Novus Biologicals (Littleton, Colo.) and Invivogen (San Diego, Calif.), respectively. Cells were maintained in DMEM with 10% HI-FBS and selection antibiotics per the manufacturer's instructions. Cells were plated at 5×10^5 cells/96-well and stimulated with indicated agonist(s) for 24 h. Supernatants were harvested and analyzed for NF-κB/SEAP activation using the QuantiBlue™ kit (Invivogen). Values are expressed as fold change in OD650 over vehicle-only treated samples.
A general note: A reporter such as luciferase makes a cellular process visible.

For experiment [1], the system named is newborn cord blood mononuclear cells (CBMCs). Kind of experiment: Human newborn Th1 polarization assay. It is filed as cell-based. As to conditions: 10 μM, with αCD3, 96 hrs. The method, then: Newborn cord blood mononuclear cells (CBMCs), a mixed mononuclear cell culture which is a largely naïve newborn T cell population, were stimulated with the TLR7/8 agonists in the presence of the polyclonal T cell activator αCD3 for 96 hours. T cell polarization was evaluated by IFNγ levels measured in cell-free supernatants by ELISA.

For experiment [2], the system named is FHA (B. pertussis filamentous hemagglutinin). Kind of experiment: Adult mouse immunization with Infanrix (DTaP), anti-FHA serum antibody titers. The settings on record: 14 days post primary and secondary. It is filed as in vivo, Balb/c mice. The method, then: For immunization experiments, both neonate and adult mice were immunized intramuscularly (i.m.) in the posterior thigh with 50 μl of total vaccine dose. For adult mouse studies, Balb/c mice (6-8 weeks of age) were immunized with Infanrix (GSK, 1/100th of the human dose)±CRX649 or CRX-727 at 0.1 μg, 1 μg or 10 μg per mouse in different formulations (aqueous choline salt, liposome or alum pre-adsorbed). Serum was harvested 14 days following prime (14dp1) or boost (14dp2) and anti-FHA serum antibody IgG1 and IgG2a titers were measured by ELISA, as described below. For neonatal mouse studies, 7 day old Balb/c and C57BL/6 mice were immunized with a prime-boost schedule (two injections one week apart, for newborn mice at DOL 7 and 14). Serum was harvested 14 days following boost (14dp2) (day of life 28) and anti-FHA serum total IgG titers, IgG1 and IgG2a/IgG2c were measured by ELISA.
For anti-filamentous hemagglutinin (FHA) ELISAs, Nunc MaxiSorp™ flat bottom 96-well plates (ThermoFisher Scientific) were coated with 5 μg/ml FHA (B. pertussis Filamentous Hemagglutinin, Strain: NCTC 10739, The Native Antigen Company/Cedarlane, Burlington, N.C.) in carbonate buffer pH 9.6, incubated overnight at 4° C., washed 3× with wash buffer (KPL 10× Phosphate Buffered Saline with Tween 20 (Fisher Scientific)) and blocked with Superblock™ (ScyTek) for 1 h at room temperature (RT). […]

Results on 2 compounds are retold here after patent US11464854B2, “Methods and compositions relating to adjuvants” (Children's Medical Center Corporation, priority 2017, dated 2022).

SMILES strings stand for the structures.

For `CCCCCCCCCCCCCCCCCC(=O)NCCCCOn1c(CCCC)nc2c(N)nc3ccccc3c21` [3M-052, N-[4-[(4-amino-2-butyl-1H-imidazo[4,5-c]quinolin-1-yl)oxy]butyl]octadecanamide], the “Blood tumor necrosis factor (TNF) concentrations, peak” value in the experiment on TNF is “no induced systemic TNF detectable”.

Turning to `CCCCc1nc2c(N)nc3ccccc3c2n1CCO` [CRX-649], the “TLR7 vs. TLR8 selectivity” value on human TLR8 (HEK293 assay) is “preference for TLR8”. In addition, the “potency for hTLR8” value at human TLR8 (among six IMQ and OA compounds, SEAP fold change) is “greatest potency”. Also, the “IFNγ production by newborn T cells” value in experiment [1] is reported as “significantly enhanced ability to induce IFNγ production”. Also, the “anti-FHA IgG1 or IgG2a antibody titers” value in experiment [2] is given as “not able to enhance”.
